Data taken from ChEMBL document CHEMBL1201862, “PubChem BioAssay data set” (2004).
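Briefly, cells in 96-well plates were exposed to five compound concentrations for 48 h, and endpoints were estimated by linear interpolation. GI50 = concentration required for 50% inhibition of growth.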 Active and inactive are the calls of the source. Rule as the data show it: active = GI50 up to about 1.1 µM and inactive = higher.

Legend:
Assay in all cases: inhibition of tumour cell growth, NCI panel, 48 h
HCC 2998 = system: HCC 2998
HCT-15 = system: HCT-15
SK-MEL-28 = system: SK-MEL-28
LOX IMVI = system: LOX IMVI
EKVX = system: EKVX
U-251 = system: U-251
HL-60 = system: HL-60
UACC-62 = system: UACC-62
KM12 = system: KM12
MOLT-4 = system: MOLT-4
MDA-MB-231 = system: MDA-MB-231
SK-MEL-2 = system: SK-MEL-2
UO-31 = system: UO-31
SR = system: SR
SW-620 = system: SW-620
MDA-MB-435 = system: MDA-MB-435
HT-29 = system: HT-29
786-0 = system: 786-0
SK-OV-3 = system: SK-OV-3
RXF 393 = system: RXF 393

**Q.** How did the GI50 (HCC 2998) turn out when `CSC1=C(C)C(/C=N/Nc2ccc([N+](=O)[O-])cc2)=C(C)N(c2ccccc2)S1(=O)=O` was run?
**A.** 25.8 µM (inactive)

**Q.** And the GI50 (HCT-15)?
**A.** 68.9 µM

**Q.** What about the GI50 (SK-MEL-28) of the same compound?
**A.** > 100 µM (inactive)

**Q.** What about the GI50 (LOX IMVI) of the same compound?
**A.** 19.6 µM (inactive)

**Q.** And the GI50 (EKVX)?
**A.** 33.9 µM (inactive)

**Q.** What about the GI50 (U-251) of the same compound?
**A.** > 100 µM (inactive)

**Q.** What about the GI50 (HL-60) of the same compound?
**A.** 1.28 µM (inactive)

**Q.** And the GI50 (UACC-62)?
**A.** 74.1 µM (inactive)

**Q.** And the GI50 (KM12)?
**A.** 26.5 µM (inactive)

**Q.** And the GI50 (MOLT-4)?
**A.** 5.27 µM (inactive)

**Q.** What about the GI50 (MDA-MB-231) of the same compound?
**A.** > 100 µM (inactive)

**Q.** And the GI50 (SK-MEL-2)?
**A.** > 100 µM (inactive)

**Q.** What about the GI50 (UO-31) of the same compound?
**A.** 29.3 µM (inactive)

**Q.** And the GI50 (SR)?
**A.** 17.8 µM (inactive)

**Q.** And the GI50 (SW-620)?
**A.** > 100 µM (inactive)

**Q.** What about the GI50 (MDA-MB-435) of the same compound?
**A.** > 100 µM (inactive)

**Q.** What about the GI50 (HT-29) of the same compound?
**A.** 28.5 µM (inactive)

**Q.** What about the GI50 (786-0) of the same compound?
**A.** > 100 µM (inactive)

**Q.** What about the GI50 (SK-OV-3) of the same compound?
**A.** > 100 µM (inactive)

**Q.** What about the GI50 (RXF 393) of the same compound?
**A.** > 100 µM (inactive)

**Q.** Which GI50 (HCC 2998) does the source give for `O=C1C=CC(=O)N1n1c(Cc2ccccc2)n[nH]c1=O` here?
**A.** > 100 µM (inactive)

**Q.** What about the GI50 (HCT-15) of the same compound?
**A.** > 100 µM

**Q.** And the GI50 (SK-MEL-28)?
**A.** > 100 µM (inactive)

**Q.** And the GI50 (LOX IMVI)?
**A.** > 100 µM (inactive)

**Q.** And the GI50 (EKVX)?
**A.** > 100 µM (inactive)

**Q.** And the GI50 (U-251)?
**A.** > 100 µM (inactive)

**Q.** And the GI50 (HL-60)?
**A.** > 100 µM (inactive)

**Q.** What about the GI50 (UACC-62) of the same compound?
**A.** > 100 µM (inactive)

**Q.** What about the GI50 (KM12) of the same compound?
**A.** > 100 µM (inactive)

**Q.** What about the GI50 (MOLT-4) of the same compound?
**A.** > 100 µM (inactive)

**Q.** What about the GI50 (MDA-MB-231) of the same compound?
**A.** > 100 µM (inactive)

**Q.** What about the GI50 (SK-MEL-2) of the same compound?
**A.** > 100 µM (inactive)

**Q.** And the GI50 (UO-31)?
**A.** > 100 µM (inactive)

**Q.** What about the GI50 (SR) of the same compound?
**A.** > 100 µM (inactive)

**Q.** What about the GI50 (SW-620) of the same compound?
**A.** > 100 µM (inactive)

**Q.** And the GI50 (MDA-MB-435)?
**A.** > 100 µM (inactive)

**Q.** What about the GI50 (HT-29) of the same compound?
**A.** > 100 µM (inactive)

**Q.** And the GI50 (786-0)?
**A.** > 100 µM (inactive)

**Q.** And the GI50 (SK-OV-3)?
**A.** > 100 µM (inactive)

**Q.** What about the GI50 (RXF 393) of the same compound?
**A.** > 100 µM (inactive)

**Q.** Which results are given for `CCN1C(=S)n2cccc2C1CC(=O)c1ccc(Cl)cc1` (stereo not given)?
**A.** GI50 (HCC 2998): 73.8 µM (inactive); GI50 (HCT-15): 51.8 µM; GI50 (SK-MEL-28): 54.1 µM (inactive); GI50 (LOX IMVI): 58.9 µM (inactive); GI50 (EKVX): 32.3 µM (inactive); GI50 (U-251): 36 µM (inactive); GI50 (HL-60): 26.7 µM (inactive); GI50 (UACC-62): 62.2 µM (inactive); GI50 (KM12): > 100 µM (inactive); GI50 (MOLT-4): 22.8 µM (inactive); GI50 (MDA-MB-231): 59.6 µM (inactive); GI50 (SK-MEL-2): 58.2 µM (inactive); GI50 (UO-31): 42.9 µM (inactive); GI50 (SR): 57 µM (inactive); GI50 (SW-620): 42.9 µM (inactive); GI50 (MDA-MB-435): 56.1 µM (inactive); GI50 (HT-29): 68.7 µM (inactive); GI50 (786-0): > 100 µM (inactive); GI50 (SK-OV-3): > 100 µM (inactive); GI50 (RXF 393): > 100 µM (inactive)

**Q.** Which results are given for `CCC1(c2ccccc2)C(=O)N=C(c2ccccc2)N1CCc1ccccc1` (stereo not given)?
**A.** GI50 (HCC 2998): > 100 µM (inactive); GI50 (HCT-15): > 100 µM; GI50 (SK-MEL-28): > 100 µM (inactive); GI50 (LOX IMVI): > 100 µM (inactive); GI50 (EKVX): > 100 µM (inactive); GI50 (U-251): > 100 µM (inactive); GI50 (HL-60): > 100 µM (inactive); GI50 (UACC-62): > 100 µM (inactive); GI50 (KM12): > 100 µM (inactive); GI50 (MOLT-4): > 100 µM (inactive); GI50 (MDA-MB-231): > 100 µM (inactive); GI50 (SK-MEL-2): > 100 µM (inactive); GI50 (UO-31): > 100 µM (inactive); GI50 (SR): > 100 µM (inactive); GI50 (SW-620): > 100 µM (inactive); GI50 (MDA-MB-435): > 100 µM (inactive); GI50 (HT-29): > 100 µM (inactive); GI50 (786-0): > 100 µM (inactive); GI50 (SK-OV-3): > 100 µM (inactive); GI50 (RXF 393): > 100 µM (inactive)

**Q.** What does the source list for `COc1ccc(/C=C2\CCC(CNc3ccc(S(N)(=O)=O)cc3)C2=O)cc1` (stereo not given)?
**A.** GI50 (HCC 2998): 33.3 µM (inactive); GI50 (HCT-15): 4.71 µM; GI50 (SK-MEL-28): 16.7 µM (inactive); GI50 (LOX IMVI): 9.89 µM (inactive); GI50 (EKVX): 27.6 µM (inactive); GI50 (U-251): 19.9 µM (inactive); GI50 (HL-60): 2.15 µM (inactive); GI50 (UACC-62): 24.5 µM (inactive); GI50 (KM12): 11.3 µM (inactive); GI50 (MOLT-4): 7.69 µM (inactive); GI50 (MDA-MB-231): 16.6 µM (inactive); GI50 (SK-MEL-2): 75.7 µM (inactive); GI50 (UO-31): 5.71 µM (inactive); GI50 (SR): 1.9 µM (inactive); GI50 (SW-620): 1.95 µM (inactive); GI50 (MDA-MB-435): 18.3 µM (inactive); GI50 (HT-29): 10.2 µM (inactive); GI50 (786-0): 4.9 µM (inactive); GI50 (SK-OV-3): > 100 µM (inactive); GI50 (RXF 393): 20.4 µM (inactive)
